Patent US11492346B2, “Benzisoxazole sulfonamide derivatives” (Pfizer Inc., priority 2019, dated 2022)
pIC50, pKi: −log10 of the molar value.

Key:
[1] = test system: histone H3K23 acetylation in U2OS cells; experiment: Histone H3 Lysine 23 Acetylation Biomarker Assay; assay type: cell-based; settings: Homo sapiens, 24 hours incubation
Procedure: Compounds were tested for their ability to inhibit acetylation of the histone H3K23 marker in the following assay:
The cell line U2OS was seeded at a density of 9,000 cells per well in 96 well optical quality tissue culture plates in RPMI medium and 10% foetal bovine serum, and allowed to adhere for 24 hours under standard culture conditions (37 degree Celsius, 5% CO2). At the end of this period the medium was aspirated. […] After incubation for 24 hours, the cells were fixed with 3.7% formaldehyde in PBS for 20 minutes at room temperature, washed (5×5 minutes) with phosphate buffer saline containing 0.1% Tween 20 and blocked with Odyssey blocking buffer (LI-COR, Lincoln, Nebr.) containing 0.1% TritonX100. Anti-H3K23ac specific antibody (Abcam ab177275) in Odyssey blocking buffer containing 0.1% Tween 20 was added and incubated for 16 hours at 4 degree Celsius. After washing (as above), a secondary antibody labelled with Alexa647 dye (LifeTechnologies) and Hoechst 33342 (1 μg/mL, SigmaAldrich) were added for 1 hour incubation. Plates were washed as previously and read on a PerkinElmer Phenix high content imaging platform. Using a Columbus image analysis pipeline, individual nuclei were located by Hoechst 33342 stain and the acetylation level was calculated from the Alexa647-related intensity in the same area.

[2] = test system: histone H3 Lysine 14 acetylation in U2OS cells; experiment: Histone H3 Lysine 14 Acetylation Biomarker Assay; assay type: cell-based; settings: Homo sapiens, serum free medium, 24 hours incubation
Procedure: Compounds were tested for their ability to inhibit acetylation of the histone H3 Lysine 14 marker in the following assay:
The cell line U2OS was seeded at a density of 3,000 cells per well in 384-well optical quality tissue culture plates in RPMI medium supplemented with 10% foetal bovine serum and 10 mM Hepes. The cells were allowed to adhere for 24 hours under standard culture conditions (37 degree Celsius, 5% CO2). At the end of this period the cells were washed with serum free medium. […] After incubation for 24 hours, the cells were fixed with 4% formaldehyde in PBS for 15 minutes at room temperature, washed with phosphate buffer saline and blocked with blocking buffer containing 0.2% TritonX100 and 2% BSA. Anti-H3K14ac specific antibody (Cell Signalling Technologies) in blocking buffer was added and incubated overnight at 4 degree Celsius. After washing, a secondary antibody labelled with AlexaFluor 488 dye (ThermoFisher) and Hoechst 33342 (1 μg/mL, Life Technologies) were added for 2 hours incubation at room temperature. Plates were washed and read on a PerkinElmer Opera HCS high content imaging platform. Using a Columbus image analysis pipeline, individual nuclei were located by Hoechst 33342 stain and the acetylation level was calculated from the AlexaFluor 488-related intensity in the same area.

[3] = test system: histone H2A.Z Lysine 7 acetylation in U2OS cells; experiment: H2A.Z Lysine 7 Acetylation Biomarker Assay; assay type: cell-based; settings: Homo sapiens, serum free medium, 24 hours incubation
Procedure: Compounds were tested for their ability to inhibit the histone H2A.Z Lysine 7 acetylation marker in the following assay: The cell line U2OS was seeded at a density of 3,000 cells per well in 384-well optical quality tissue culture plates in RPMI medium supplemented with 10% foetal bovine serum and 10 mM Hepes. The cells were allowed to adhere for 24 hours under standard culture conditions (37 degree Celsius, 5% CO2). At the end of this period the cells were washed with serum free medium. […] 2018, at 30 μM concentration. After incubation for 24 hours, the cells were fixed with 4% formaldehyde in PBS for 15 minutes at room temperature, washed with phosphate buffer saline and blocked with blocking buffer containing 0.2% TritonX100 and 2% BSA. Anti-H2A.ZK7ac specific antibody (Abcam) in blocking buffer was added and incubated overnight at 4 degree Celsius. After washing, a secondary antibody labelled with AlexaFluor 488 dye (ThermoFisher) and Hoechst 33342 (1 μg/mL, Life Technologies) were added for 2 hours incubation at room temperature. Plates were washed and read on a PerkinElmer Opera HCS high content imaging platform. Using a Columbus image analysis pipeline, individual nuclei were located by Hoechst 33342 stain and the acetylation level was calculated from the AlexaFluor 488-related intensity in the same area.

TIP60-KAT5 = TIP60-KAT5 (Homo sapiens (Human), UniProt Q92993); experiment: biochemical
MOZ-KAT6A = MOZ-KAT6A (Homo sapiens (Human), UniProt Q92794); experiment: biochemical
HBO1-KAT7 = HBO1-KAT7 (Homo sapiens (Human), UniProt O95251); experiment: biochemical
KAT6A = KAT6A (Homo sapiens (Human), UniProt Q92794); experiment: KAT assay (SAMDI mass spectrometry), KAT6A; assay type: biochemical; settings: KAT6a Ki at 1 μM AcCoA, 1 μM AcCoA;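 note: Baculovirus-expressed KAT6A acetylating histone H3 (1-21) peptide (2 µM), 30-60 min at room temperature, % product conversion fitted to Morrison equation for tight-binding competitive inhibitors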
Procedure: (§1) Prepare 10 mM stock solutions in 100% DMSO from solid material • 2. Serial dilute 10 mM, 1 mM or 0.1 mM compound stocks 3-fold in 100% DMSO for 11-point dose response
(§2) Prepare 1× assay buffer containing 10 mM Tris HCL pH 8.0, 2.5 mM NaCl, 0.5 mM EDTA, 0.005% BSG and 0.02% Tween-20 • 2. Dilute Histone peptide (CPC Scientific) and AcCoA (Sigma) together in assay buffer to 2×. • 3. Dilute KAT enzyme in assay buffer to 2×.
(§3) Enzyme reaction • 1. Final reaction conditions for each KAT assay in a 20 ul assay reaction volume: • i. KAT5 25 nM, 1 uM AcCoA, 2 uM H4 1-21 peptide, 30-minute reaction • ii. KAT6A 15 nM, 1 uM AcCoA, 2 uM H3 1-21 peptide, 45-minute reaction • iii. KAT6B 25 nM, 1 uM AcCoA, 2 uM H3 1-21 peptide, 60-minute reaction • iv. KAT7 12.5 nM, 1 uM AcCoA, 2 uM H3 1-21 peptide, 45-minute reaction • v. KAT8 15 nM, 1 uM AcCoA, 2 uM H3 1-21 peptide, 45-minute reaction • 2. Add 0.5 ul of diluted compound to the assay plate (384-well V-bottom polypropylene plates) or 0.5 ul of DMSO for control wells. • 3. Add 10 ul of 2× Histone peptide/2×AcCoA mix to the assay plate. • 4. Add 10 ul of 2× enzyme to the assay plate. • 5. Stop the reaction after the indicated time with the addition of 2 ul of 5% formic acid • 6. Each reaction was analyzed using self-assembled monolayer desorption/ionization time-of-flight mass spectrometry (Mrksich, Milan (2008) Mass Spectrometry of Self-Assembled Monolayers: A New Tool for Molecular Surface Science ACS Nano 2008 2 (1), 7-18; SAMDI Tech, Inc. (Chicago, Ill.)). • 7. Area under the curve (AUC) for both substrate and product peaks was determined for KAT5 at M.W. 2561 [Substrate+H]^+ and 2603 [Product+H]^+ with a +/−1 Da tolerance, respectively • 8. Area under the curve (AUC) for both substrate and product peaks was determined for KAT6a, KAT6B, KAT7 and KAT8 at M.W. 2723 [Substrate+H]^+ and 2765 [Product+H]^+ with a +/−1 Da tolerance, respectively. […] Percent conversion to product was calculated by: AUCProduct/(AUCsubstrate+AUCProduct).
(§4) IC50 values were determined by fitting the % conversion at each inhibitor concentration to the 4-parameter IC50 equation using Pfizer proprietary curve fitting software. • 2. Ki values were determined by fitting the % conversion at each inhibitor concentration to the Morrison equation for tightbinding competitive inhibitors using Pfizer proprietary curve fitting software.
(§5) KAT enzymes were expressed using a baculovirus expression system and purified at Pfizer, La Jolla. […] Acetyl coenzyme A was purchased from Sigma-Aldrich (St. Louis, Mo.). All other biochemical reagents were purchased from Sigma-Aldrich or ThermoFisher Scientific (Waltham, Mass.).
(§6) KAT assays were performed at room temperature in assay buffer containing 1 μM AcCoA, 2 μM histone peptide, 10 mM Tris HCL pH 8.0, 2.5 mM NaCl, 0.5 mM EDTA, 0.005% BSG and 0.02% Tween-20. 10 ul of 2× Histone peptide/AcCoA mix was added to a 384-well V-bottom polypropylene assay plate containing 0.5 ul of serially diluted test compound in 100% dimethyl sulfoxide (DMSO). To start the reaction, 10 ul of 2× enzyme solution was added to the assay plate. KAT assays were terminated after 30-60 minutes with the addition of 2 ul of 5% formic acid. All assays used histone H3 (1-21) peptide except for the KAT5 assay which used histone H4 (1-21) peptide. The final enzyme concentration for each KAT was as follows: KAT5, 25 nM; KAT6A, 15 nM; KAT6B, 25 nM; KAT7, 12.5 nM; KAT8 15 nM. Each reaction was analyzed using self-assembled monolayer desorption/ionization time-of-flight mass spectrometry (Mrksich, Milan (2008) Mass Spectrometry of Self-Assembled Monolayers: A New Tool for Molecular Surface Science ACS Nano 2008 2 (1), 7-18; SAMDI Tech, Inc. (Chicago, Ill.)).
(§7) Area under the curve (AUC) for both substrate and product peaks was determined for KAT5 at M.W. 2561 [Substrate+H]^+ and 2603 [Product+H]^+ with a +/−1 Da tolerance, respectively.

KAT6B = KAT6B (Homo sapiens (Human), UniProt Q8WYB5); experiment: KAT assay (SAMDI mass spectrometry), KAT6B; assay type: biochemical; settings: 1 μM AcCoA
Procedure: as §1, §2, §3, §4, §5, §6, §7

KAT5 = KAT5 (Homo sapiens (Human), UniProt Q92993); experiment: KAT assay (SAMDI mass spectrometry), KAT5; assay type: biochemical; settings: 1 μM AcCoA;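 note: Baculovirus-expressed KAT5 acetylating a histone H4 peptide at room temperature, read as percent conversion to product, Ki from a Morrison tight-binding competitive fit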
Procedure: as §1, §2, §3, §4, §5, §6, §7

KAT7 = KAT7 (Homo sapiens (Human), UniProt O95251); experiment: KAT assay (SAMDI mass spectrometry), KAT7; assay type: biochemical; settings: KAT7 Ki at 1 μM AcCoA;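 note: Baculovirus-expressed enzyme acetylating a histone peptide at room temperature, percent conversion from product and substrate peak areas, Ki from a Morrison tight-binding competitive fit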
Procedure: as §1, §2, §3, §4, §5, §6, §7

KAT8 = KAT8 (Homo sapiens (Human), UniProt Q9H7Z6); experiment: KAT assay (SAMDI mass spectrometry), KAT8; assay type: biochemical; settings: 1 μM AcCoA
Procedure: as §1, §2, §3, §4, §5, §6, §7

Sequence of MOZ-KAT6A (Q92794 other isoform, or with tags, fused parts or gaps): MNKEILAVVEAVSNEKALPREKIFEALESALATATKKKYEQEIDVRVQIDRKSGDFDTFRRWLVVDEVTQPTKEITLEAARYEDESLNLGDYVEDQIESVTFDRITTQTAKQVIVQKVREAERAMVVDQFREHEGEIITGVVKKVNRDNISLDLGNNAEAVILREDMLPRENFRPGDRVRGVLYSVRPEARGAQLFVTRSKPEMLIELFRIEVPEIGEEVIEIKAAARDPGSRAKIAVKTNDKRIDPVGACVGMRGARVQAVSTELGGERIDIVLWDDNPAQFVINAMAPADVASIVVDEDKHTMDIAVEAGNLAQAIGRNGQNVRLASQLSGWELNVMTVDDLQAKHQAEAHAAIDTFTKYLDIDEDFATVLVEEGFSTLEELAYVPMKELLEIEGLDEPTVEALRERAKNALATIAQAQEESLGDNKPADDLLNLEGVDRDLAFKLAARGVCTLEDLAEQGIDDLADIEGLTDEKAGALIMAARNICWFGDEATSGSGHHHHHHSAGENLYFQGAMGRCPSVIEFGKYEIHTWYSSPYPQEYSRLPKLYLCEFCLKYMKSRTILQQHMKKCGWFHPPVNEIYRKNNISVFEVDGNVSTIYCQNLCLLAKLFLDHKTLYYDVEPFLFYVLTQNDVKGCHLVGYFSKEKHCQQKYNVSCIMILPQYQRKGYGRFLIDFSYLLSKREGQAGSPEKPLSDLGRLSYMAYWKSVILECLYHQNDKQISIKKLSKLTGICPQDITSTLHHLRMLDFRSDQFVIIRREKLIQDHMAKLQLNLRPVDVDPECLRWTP
Sequence of HBO1-KAT7 (O95251 other isoform, or with tags, fused parts or gaps): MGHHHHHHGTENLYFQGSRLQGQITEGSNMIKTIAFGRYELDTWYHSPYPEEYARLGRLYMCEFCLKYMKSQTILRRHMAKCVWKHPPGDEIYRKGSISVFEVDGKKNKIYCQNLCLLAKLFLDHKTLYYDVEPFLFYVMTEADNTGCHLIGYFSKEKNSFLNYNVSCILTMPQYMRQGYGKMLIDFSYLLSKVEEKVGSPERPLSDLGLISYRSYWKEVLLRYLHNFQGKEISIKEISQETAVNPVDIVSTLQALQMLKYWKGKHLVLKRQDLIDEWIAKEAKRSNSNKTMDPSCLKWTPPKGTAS
Sequence of TIP60-KAT5 (Q92993 other isoform, or with tags, fused parts or gaps): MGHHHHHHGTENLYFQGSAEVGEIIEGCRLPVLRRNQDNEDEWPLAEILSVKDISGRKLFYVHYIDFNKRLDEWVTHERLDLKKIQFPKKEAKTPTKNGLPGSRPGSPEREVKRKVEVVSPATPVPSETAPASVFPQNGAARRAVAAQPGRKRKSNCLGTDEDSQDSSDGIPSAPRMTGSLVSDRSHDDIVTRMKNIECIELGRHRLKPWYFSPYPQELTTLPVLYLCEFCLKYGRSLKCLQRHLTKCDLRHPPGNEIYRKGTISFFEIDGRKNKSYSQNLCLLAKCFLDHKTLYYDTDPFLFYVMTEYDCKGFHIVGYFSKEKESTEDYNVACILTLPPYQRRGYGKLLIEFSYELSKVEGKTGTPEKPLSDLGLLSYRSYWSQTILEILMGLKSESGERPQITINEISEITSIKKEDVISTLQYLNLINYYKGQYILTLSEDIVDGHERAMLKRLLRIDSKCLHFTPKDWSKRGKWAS
Sequence of KAT6B (Q8WYB5 whole entry): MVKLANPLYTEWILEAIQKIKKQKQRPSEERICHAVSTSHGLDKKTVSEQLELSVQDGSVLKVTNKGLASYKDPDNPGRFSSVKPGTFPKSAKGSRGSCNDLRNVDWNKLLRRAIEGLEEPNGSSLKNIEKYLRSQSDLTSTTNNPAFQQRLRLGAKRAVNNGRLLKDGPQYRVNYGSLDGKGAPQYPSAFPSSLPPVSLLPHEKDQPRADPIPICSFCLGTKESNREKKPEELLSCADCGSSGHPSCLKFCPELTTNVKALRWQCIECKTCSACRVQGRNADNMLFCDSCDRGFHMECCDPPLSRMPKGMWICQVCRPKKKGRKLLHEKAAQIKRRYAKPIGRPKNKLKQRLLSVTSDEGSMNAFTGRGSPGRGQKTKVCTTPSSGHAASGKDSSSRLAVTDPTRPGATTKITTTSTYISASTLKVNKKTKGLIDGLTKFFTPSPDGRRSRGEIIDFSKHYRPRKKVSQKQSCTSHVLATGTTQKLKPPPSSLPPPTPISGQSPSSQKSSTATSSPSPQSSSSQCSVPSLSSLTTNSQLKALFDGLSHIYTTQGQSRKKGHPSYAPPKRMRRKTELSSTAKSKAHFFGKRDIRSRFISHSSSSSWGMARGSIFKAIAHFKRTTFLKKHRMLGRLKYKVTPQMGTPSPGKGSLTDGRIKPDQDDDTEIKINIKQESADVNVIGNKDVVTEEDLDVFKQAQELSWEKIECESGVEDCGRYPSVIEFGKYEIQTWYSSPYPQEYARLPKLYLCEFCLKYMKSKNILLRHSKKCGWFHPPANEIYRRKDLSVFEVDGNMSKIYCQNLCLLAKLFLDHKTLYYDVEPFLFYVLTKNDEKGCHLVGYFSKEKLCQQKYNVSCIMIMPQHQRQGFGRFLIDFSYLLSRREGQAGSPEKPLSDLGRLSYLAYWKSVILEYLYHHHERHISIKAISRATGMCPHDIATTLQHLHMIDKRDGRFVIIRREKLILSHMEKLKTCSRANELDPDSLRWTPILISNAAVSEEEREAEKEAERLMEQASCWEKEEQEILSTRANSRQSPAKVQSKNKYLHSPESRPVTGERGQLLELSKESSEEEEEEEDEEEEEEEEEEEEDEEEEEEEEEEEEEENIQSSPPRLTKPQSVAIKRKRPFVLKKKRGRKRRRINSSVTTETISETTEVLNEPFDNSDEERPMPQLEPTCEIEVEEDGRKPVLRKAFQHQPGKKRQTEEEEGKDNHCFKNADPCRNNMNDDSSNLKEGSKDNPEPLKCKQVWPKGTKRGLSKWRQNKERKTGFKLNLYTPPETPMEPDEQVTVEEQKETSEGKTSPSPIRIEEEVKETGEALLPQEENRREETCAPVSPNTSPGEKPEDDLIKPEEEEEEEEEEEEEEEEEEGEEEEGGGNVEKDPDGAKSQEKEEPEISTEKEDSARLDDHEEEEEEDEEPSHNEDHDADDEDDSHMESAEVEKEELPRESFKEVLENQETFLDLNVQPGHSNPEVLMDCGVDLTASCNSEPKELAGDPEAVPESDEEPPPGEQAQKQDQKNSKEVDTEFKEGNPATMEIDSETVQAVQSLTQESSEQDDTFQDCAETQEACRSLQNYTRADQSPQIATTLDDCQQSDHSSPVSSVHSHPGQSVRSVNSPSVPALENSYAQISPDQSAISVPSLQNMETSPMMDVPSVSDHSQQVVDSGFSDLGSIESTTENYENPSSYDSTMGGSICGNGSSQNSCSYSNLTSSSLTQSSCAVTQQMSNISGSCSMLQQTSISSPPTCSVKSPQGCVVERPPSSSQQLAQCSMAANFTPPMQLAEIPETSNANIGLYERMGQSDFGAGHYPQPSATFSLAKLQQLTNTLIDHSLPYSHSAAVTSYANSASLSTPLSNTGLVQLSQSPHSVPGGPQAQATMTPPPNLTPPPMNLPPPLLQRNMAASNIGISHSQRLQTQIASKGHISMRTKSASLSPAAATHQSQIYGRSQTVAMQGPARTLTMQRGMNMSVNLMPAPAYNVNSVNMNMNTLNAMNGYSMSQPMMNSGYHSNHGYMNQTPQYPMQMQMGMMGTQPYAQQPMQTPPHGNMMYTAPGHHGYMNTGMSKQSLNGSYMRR
Sequence of KAT7 (O95251 whole entry): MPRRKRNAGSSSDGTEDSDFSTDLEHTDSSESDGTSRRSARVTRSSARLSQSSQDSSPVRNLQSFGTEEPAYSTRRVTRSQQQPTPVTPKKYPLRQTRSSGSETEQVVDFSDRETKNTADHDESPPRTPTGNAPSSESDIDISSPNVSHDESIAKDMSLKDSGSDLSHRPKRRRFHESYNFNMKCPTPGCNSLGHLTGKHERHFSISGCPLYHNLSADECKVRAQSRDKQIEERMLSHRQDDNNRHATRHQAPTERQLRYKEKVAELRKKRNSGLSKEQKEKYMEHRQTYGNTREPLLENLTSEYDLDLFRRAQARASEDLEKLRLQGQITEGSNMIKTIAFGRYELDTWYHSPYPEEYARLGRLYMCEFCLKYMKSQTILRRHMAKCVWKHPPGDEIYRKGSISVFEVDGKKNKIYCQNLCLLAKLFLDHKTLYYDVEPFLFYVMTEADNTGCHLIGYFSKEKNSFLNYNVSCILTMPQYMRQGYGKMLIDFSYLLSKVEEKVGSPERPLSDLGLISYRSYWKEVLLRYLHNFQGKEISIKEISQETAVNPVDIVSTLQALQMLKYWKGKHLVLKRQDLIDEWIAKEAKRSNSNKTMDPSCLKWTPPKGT
Sequence of KAT5 (Q92993 whole entry): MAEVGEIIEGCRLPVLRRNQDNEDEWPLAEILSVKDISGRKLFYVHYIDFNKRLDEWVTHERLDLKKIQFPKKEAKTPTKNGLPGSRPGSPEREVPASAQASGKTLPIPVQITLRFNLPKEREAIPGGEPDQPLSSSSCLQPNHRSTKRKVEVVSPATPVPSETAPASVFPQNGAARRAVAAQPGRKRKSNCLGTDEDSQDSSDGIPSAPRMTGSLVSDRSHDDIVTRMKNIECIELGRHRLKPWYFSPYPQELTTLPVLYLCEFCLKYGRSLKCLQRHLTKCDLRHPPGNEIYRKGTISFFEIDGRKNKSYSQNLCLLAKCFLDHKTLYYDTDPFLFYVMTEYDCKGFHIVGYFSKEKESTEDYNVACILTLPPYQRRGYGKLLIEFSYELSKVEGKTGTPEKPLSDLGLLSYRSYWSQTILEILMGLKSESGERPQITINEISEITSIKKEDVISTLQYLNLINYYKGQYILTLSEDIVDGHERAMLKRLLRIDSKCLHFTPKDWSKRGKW

Row | Compound | pIC50 [1] | pIC50 [2] | pIC50 [3] | pIC50 (TIP60-KAT5) | pIC50 (MOZ-KAT6A) | pIC50 (HBO1-KAT7) | pKi (KAT6A) | pKi (KAT6B) | pKi (KAT5) | pKi (KAT7) | pKi (KAT8)
1 | COc1cccc(OC)c1S(=O)(=O)Nc1noc2cc(Cn3cccn3)cc(OC)c12 [Example 98, N-(6-((1H-pyrazol-1-yl)methyl)-4-methoxybenzo[d]isoxazol-3-yl)-2,6-dimethoxybenzenesulfonamide] | 9.22 |  |  |  |  |  |  |  |  |  | 
2 | COc1cc(Cn2cccn2)cc2onc(NS(=O)(=O)c3cccc4cc(C)cnc34)c12 [Example 99, N-(6-((1H-pyrazol-1-yl)methyl)-4-methoxybenzo[d]isoxazol-3-yl)-3-methylquinoline-8-sulfonamide] |  | 5.81 | 4.94 | 6.01 | 7.89 | 6.92 |  |  |  |  | 
3 | COc1cccc(OC)c1S(=O)(=O)Nc1noc2cc(Cn3cc(C)cn3)cc(OC)c12 [Example 100, 2,6-dimethoxy-N-(4-methoxy-6-((4-methyl-1H-pyrazol-1-yl)methyl)benzo[d]isoxazol-3-yl)benzenesulfonamide] | 7.34 | 5.87 | 4.82 | 4.95 | 7.52 | 6.47 | 7.39 | 7.23 | 5.21 | 6.21 | 5.31
4 | COc1cccc(OC)c1S(=O)(=O)Nc1noc2cc(-c3cnn(C)c3)cc(OC)c12 [Example 101, 2,6-dimethoxy-N-(4-methoxy-6-(1-methyl-1H-pyrazol-4-yl)benzo[d]isoxazol-3-yl)benzenesulfonamide] |  |  |  | 4.95 | 5.90 | 5.81 |  |  |  |  | 
5 | COc1cccc(OC)c1S(=O)(=O)Nc1noc2c(-c3cnn(C)c3)cc(C)cc12 [Example 102, 2,6-dimethoxy-N-(5-methyl-7-(1-methyl-1H-pyrazol-4-yl)benzo[d]isoxazol-3-yl)benzenesulfonamide] |  | 4.55 | < 4.40 | < 3.90 | 4.31 | 5.85 |  |  |  |  | 
